Test results published in article PMC6386544 (Infection and Immunity, 2019).
Read-outs that look alike come from different tables or passages of the source.

Columns and labels:
ToxB-B2 [1] = biological target: T1, ToxB-B2 (Clostridioides difficile, UniProt P18177); conditions: glycan 160 nM to 100 μM
T1 construct: gene tcdB

ToxA-B1 [2] = biological target: T2, ToxA-B1 (Clostridioides difficile, UniProt P16154); conditions: glycan 160 nM to 100 μM
T2 construct: gene tcdA

ToxA-B3 [3] = biological target: T3, ToxA-B3 (Clostridioides difficile, UniProt P16154); conditions: glycan 160 nM to 100 μM
T3 construct: gene tcdA

ToxB-GT [4] = biological target: T4, ToxB-GT (Clostridioides difficile, UniProt P18177); conditions: glycan 160 nM to 100 μM
T4 construct: gene tcdB

ToxB-B2 [5] = biological target: T1, ToxB-B2; test: biochemical
ToxA-B1 [6] = biological target: T2, ToxA-B1; test: biochemical
ToxA-B3 [7] = biological target: T3, ToxA-B3; test: biochemical
ToxB-GT [8] = biological target: T4, ToxB-GT; test: biochemical
[9] = read-out: Protein binding (KD)^a / ToxB-B2
[10] = read-out: Protein binding (KD)^a / ToxA-B1
[11] = read-out: Protein binding (KD)^a / ToxA-B3

Compound	Kd (ToxB-B2 [1]; [9])	Kd (ToxA-B1 [2]; [10])	Kd (ToxA-B3 [3]; [11])	Kd (ToxB-GT [4])	further results
Sialyl-Lewis A	2.39 ± 0.68 µM	71.8 ± 27.1 µM	72.1 ± 31.8 µM	> 100 µM	–
CC(=O)N[C@H]1[C@H](O[C@H]2[C@@H](O)[C@@H](CO)OC(O)[C@@H]2O)O[C@H](CO)[C@@H](O[C@@H]2O[C@H](CO)[C@H](O)[C@H](O)[C@H]2O)[C@@H]1O[C@@H]1O[C@@H](C)[C@@H](O)[C@@H](O)[C@@H]1O (some centres unmarked) [Lewis X]	0.501 ± 0.308 µM	18.9 ± 5.58 µM	16.5 ± 2.8 µM	> 100 µM	–
Man5	–	–	–	> 100 µM	Kd (ToxB-B2 [1]): > 100 µM; Kd (ToxA-B1 [2]): > 100 µM; Kd (ToxA-B3 [3]): > 100 µM
CC(=O)N[C@H]1[C@H](O[C@H]2[C@@H](O)[C@@H](CO)OC(O)[C@@H]2O)O[C@H](CO)[C@@H](O[C@@H]2O[C@@H](C)[C@@H](O)[C@@H](O)[C@@H]2O)[C@@H]1O[C@@H]1O[C@H](CO)[C@H](O)[C@H](O)[C@H]1O[C@@H]1O[C@@H](C)[C@@H](O)[C@@H](O)[C@@H]1O (some centres unmarked) [Lewis B]	0.395 ± 0.029 µM	–	–	> 100 µM	–
Blood group H	0.428 ± 0.008 µM	1.22 ± 0.49 µM	–	> 100 µM	Kd (ToxA-B3 [3]): > 100 µM
CO[C@H]1O[C@H](CO)[C@@H](O)[C@H](O)[C@@H]1O [α-Methyl-mannose]	–	–	–	–	Kd (ToxB-B2 [5]): 0.315 ± 0.103 µM; Kd (ToxA-B1 [6]): > 100 µM; Kd (ToxA-B3 [7]): > 100 µM; Kd (ToxB-GT [8]): > 100 µM
CC(=O)N[C@H]1[C@H](O[C@H]2[C@@H](O)[C@@H](CO)OC(O)[C@@H]2O)O[C@H](CO)[C@@H](O[C@@H]2O[C@@H](C)[C@@H](O)[C@@H](O)[C@@H]2O)[C@@H]1O[C@@H]1O[C@H](CO)[C@H](O)[C@H](O)[C@H]1O (some centres unmarked) [Lewis A]	0.579 ± 0.037 µM	3.38 ± 0.95 µM	1.65 ± 0.62 µM	> 100 µM	–
C[C@@H]1O[C@@H](O[C@H]2[C@H](O[C@H]3[C@H](O)[C@@H](O)C(O)O[C@@H]3CO)O[C@H](CO)[C@H](O)[C@@H]2O[C@H]2O[C@H](CO)[C@H](O)[C@H](O)[C@H]2O)[C@@H](O)[C@H](O)[C@@H]1O (some centres unmarked) [Blood group B]	42.9 ± 59.1 µM	11.4 ± 1.08 µM	14.4 ± 3.2 µM	> 100 µM	–
Lewis Y	8 ± 0.74 µM	12.7 ± 2.47 µM	55.5 ± 28.8 µM	> 100 µM	–
Blood group A	0.0291 ± 0.0075 µM	1.53 ± 0.6 µM	0.0614 ± 0.0296 µM	> 100 µM	–
